Tests used:
Prothrombin = Prothrombin (Homo sapiens, UniProt P00734); format: functional
[1] = target: T1, Alpha-1A adrenergic receptor (Homo sapiens, UniProt P35348); format: functional, cell-based
T1 sequence (P35348 whole entry): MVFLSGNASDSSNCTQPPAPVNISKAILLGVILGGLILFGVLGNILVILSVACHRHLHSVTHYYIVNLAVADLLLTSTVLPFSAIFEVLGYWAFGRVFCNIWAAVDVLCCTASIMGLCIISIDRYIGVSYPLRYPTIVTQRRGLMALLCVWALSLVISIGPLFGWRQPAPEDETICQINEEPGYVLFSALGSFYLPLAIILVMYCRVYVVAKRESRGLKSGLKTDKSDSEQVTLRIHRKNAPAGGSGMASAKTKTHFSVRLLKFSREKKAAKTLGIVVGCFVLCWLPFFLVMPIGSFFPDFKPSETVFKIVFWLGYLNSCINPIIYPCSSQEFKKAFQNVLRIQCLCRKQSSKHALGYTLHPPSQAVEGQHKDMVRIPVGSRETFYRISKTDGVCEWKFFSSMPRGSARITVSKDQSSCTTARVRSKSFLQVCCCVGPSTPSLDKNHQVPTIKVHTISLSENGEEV

[2] = target: Gamma-aminobutyric acid receptor subunit alpha-1 (Rattus norvegicus, UniProt P62813)
Sequence of Gamma-aminobutyric acid receptor subunit alpha-1 (P62813 whole entry): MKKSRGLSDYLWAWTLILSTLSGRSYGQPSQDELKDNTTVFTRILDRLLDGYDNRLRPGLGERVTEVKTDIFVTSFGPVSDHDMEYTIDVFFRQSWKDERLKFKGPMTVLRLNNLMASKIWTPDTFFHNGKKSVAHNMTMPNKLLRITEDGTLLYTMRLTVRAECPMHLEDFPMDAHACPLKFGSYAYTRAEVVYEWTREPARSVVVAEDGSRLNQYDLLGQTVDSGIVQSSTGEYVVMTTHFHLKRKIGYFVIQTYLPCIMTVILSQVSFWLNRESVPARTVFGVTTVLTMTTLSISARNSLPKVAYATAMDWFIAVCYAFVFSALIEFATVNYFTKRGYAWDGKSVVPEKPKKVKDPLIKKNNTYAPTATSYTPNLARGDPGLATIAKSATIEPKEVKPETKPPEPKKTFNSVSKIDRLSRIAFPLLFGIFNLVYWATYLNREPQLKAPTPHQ

[3] = target: T2, Muscarinic acetylcholine receptor M2 (Homo sapiens, UniProt P08172); format: functional, cell-based
T2 sequence (P08172 whole entry): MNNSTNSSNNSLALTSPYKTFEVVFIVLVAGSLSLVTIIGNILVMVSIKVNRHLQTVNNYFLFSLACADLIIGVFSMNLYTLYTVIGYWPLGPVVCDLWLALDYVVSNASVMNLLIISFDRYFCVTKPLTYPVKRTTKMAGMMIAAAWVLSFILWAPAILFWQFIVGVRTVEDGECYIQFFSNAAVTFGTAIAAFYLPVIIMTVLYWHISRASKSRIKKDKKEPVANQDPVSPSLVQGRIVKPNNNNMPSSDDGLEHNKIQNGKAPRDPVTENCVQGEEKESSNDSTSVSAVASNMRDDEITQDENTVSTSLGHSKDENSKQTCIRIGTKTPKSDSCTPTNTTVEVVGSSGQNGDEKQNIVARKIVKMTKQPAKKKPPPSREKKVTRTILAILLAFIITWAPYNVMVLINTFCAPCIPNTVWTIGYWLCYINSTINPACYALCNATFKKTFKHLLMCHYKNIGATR

[4] = target: T3, Sodium-dependent serotonin transporter (Homo sapiens, UniProt P31645)
T3 sequence (P31645 whole entry): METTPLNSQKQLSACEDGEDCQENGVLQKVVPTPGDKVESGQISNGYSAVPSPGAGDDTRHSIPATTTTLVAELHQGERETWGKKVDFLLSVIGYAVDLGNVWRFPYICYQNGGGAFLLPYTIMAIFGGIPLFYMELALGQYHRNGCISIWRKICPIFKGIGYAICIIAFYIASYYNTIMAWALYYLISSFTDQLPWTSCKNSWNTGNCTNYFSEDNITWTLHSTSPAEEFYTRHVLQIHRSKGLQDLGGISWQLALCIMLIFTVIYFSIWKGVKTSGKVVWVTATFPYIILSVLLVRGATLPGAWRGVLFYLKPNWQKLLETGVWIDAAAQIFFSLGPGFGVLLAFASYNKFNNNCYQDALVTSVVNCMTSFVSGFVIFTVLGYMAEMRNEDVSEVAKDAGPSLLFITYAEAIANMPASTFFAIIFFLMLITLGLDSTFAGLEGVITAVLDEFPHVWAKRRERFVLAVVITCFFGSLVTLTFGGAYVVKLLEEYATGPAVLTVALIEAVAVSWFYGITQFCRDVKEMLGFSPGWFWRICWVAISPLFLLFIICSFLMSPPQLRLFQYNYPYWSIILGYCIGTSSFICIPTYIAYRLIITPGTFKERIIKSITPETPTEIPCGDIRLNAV

Cannabinoid receptor 1 = Cannabinoid receptor 1 (Homo sapiens, UniProt P21554); format: functional, cell-based
Sequence of Cannabinoid receptor 1 (P21554 whole entry): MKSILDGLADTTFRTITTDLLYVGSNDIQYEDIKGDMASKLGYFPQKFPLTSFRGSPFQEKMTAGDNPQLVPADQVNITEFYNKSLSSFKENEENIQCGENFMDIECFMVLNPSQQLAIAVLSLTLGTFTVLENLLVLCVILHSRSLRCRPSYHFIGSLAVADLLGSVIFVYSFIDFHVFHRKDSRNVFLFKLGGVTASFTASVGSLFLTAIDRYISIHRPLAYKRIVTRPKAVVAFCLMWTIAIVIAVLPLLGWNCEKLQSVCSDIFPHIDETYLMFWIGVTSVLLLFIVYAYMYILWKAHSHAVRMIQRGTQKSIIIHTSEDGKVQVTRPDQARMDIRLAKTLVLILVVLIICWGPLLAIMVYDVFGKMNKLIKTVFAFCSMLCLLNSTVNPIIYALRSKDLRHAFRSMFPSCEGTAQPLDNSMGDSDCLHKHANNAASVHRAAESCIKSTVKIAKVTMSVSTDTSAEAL

[5] = target: 5-hydroxytryptamine receptor 2A (Homo sapiens, UniProt P28223); format: functional, cell-based
Sequence of 5-hydroxytryptamine receptor 2A (P28223 whole entry): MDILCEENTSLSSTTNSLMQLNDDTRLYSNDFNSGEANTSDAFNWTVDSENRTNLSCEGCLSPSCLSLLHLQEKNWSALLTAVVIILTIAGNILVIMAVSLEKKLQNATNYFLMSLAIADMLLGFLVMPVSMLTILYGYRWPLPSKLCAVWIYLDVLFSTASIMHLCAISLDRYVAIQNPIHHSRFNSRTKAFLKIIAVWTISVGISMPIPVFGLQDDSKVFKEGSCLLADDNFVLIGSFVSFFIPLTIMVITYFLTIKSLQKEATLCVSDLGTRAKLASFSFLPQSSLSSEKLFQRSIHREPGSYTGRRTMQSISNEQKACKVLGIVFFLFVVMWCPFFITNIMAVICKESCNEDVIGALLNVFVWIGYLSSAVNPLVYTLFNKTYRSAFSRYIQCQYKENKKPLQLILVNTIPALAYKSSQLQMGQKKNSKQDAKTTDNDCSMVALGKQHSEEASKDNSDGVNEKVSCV

[6] = target: Sodium-dependent dopamine transporter (Homo sapiens, UniProt Q01959)
Sequence of Sodium-dependent dopamine transporter (Q01959 whole entry): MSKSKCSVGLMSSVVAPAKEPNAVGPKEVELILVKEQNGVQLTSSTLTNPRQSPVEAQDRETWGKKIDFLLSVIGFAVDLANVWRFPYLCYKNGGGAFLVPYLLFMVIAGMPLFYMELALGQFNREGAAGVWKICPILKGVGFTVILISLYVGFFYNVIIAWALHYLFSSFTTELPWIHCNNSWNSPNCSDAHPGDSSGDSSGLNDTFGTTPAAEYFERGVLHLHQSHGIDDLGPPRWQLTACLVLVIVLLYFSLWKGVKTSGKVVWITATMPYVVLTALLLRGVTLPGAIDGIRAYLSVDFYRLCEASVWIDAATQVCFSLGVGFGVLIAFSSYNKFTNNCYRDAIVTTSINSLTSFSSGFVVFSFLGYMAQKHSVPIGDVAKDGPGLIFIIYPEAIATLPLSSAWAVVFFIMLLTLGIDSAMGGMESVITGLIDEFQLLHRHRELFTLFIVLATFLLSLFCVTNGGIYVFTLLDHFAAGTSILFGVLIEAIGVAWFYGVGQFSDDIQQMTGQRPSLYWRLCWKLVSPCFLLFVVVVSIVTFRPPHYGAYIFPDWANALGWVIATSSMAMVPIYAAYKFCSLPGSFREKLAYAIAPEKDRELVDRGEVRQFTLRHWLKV

Acetylcholinesterase = Acetylcholinesterase (Homo sapiens, UniProt P22303); format: functional
Sequence of Acetylcholinesterase (P22303 whole entry): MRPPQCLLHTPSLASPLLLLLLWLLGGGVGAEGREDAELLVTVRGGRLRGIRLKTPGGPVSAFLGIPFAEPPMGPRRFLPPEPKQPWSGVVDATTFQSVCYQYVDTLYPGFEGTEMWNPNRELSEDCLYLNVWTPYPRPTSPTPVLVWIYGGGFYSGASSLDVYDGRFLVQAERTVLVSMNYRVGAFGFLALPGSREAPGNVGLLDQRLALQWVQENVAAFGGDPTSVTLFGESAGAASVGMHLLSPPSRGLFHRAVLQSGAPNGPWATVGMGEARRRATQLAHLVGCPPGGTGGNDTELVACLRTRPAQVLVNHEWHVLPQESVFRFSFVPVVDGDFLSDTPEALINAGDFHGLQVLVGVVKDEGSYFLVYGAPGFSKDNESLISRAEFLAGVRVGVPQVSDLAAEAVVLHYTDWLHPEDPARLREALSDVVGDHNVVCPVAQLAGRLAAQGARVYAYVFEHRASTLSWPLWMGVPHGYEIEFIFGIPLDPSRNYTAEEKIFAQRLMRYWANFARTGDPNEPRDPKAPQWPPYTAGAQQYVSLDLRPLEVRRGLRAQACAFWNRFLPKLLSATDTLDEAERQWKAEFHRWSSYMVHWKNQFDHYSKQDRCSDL

[7] = target: T2, Muscarinic acetylcholine receptor M2; format: functional, cell-based; remark: listed apart in the source
[8] = target: T3, Sodium-dependent serotonin transporter; remark: listed apart in the source
Vasopressin V1a receptor = Vasopressin V1a receptor (Homo sapiens, UniProt P37288)
Sequence of Vasopressin V1a receptor (P37288 whole entry): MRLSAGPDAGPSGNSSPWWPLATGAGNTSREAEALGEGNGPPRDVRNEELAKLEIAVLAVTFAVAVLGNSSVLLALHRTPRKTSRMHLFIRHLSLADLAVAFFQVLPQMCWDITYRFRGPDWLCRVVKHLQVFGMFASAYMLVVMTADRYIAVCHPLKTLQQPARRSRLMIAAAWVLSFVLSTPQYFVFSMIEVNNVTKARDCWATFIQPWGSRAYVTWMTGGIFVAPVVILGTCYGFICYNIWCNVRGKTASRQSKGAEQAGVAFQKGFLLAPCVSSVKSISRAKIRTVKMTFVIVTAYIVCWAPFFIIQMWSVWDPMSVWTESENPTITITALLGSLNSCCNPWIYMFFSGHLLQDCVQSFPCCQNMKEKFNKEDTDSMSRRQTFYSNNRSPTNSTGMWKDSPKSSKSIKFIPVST

Endothelin-1 receptor = target: T4, Endothelin-1 receptor (Homo sapiens, UniProt P25101)
T4 sequence (P25101 whole entry): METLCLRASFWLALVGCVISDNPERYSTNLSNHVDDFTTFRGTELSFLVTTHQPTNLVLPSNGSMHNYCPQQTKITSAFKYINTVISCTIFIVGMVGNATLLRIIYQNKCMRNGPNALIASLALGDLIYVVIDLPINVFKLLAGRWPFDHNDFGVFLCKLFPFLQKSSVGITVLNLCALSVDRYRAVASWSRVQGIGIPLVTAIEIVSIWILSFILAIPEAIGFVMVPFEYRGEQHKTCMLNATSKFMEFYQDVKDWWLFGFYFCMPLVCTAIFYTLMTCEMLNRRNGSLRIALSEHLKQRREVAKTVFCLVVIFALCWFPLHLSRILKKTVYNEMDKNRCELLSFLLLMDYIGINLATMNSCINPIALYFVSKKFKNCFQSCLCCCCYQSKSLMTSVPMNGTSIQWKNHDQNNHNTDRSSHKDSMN

[9] = target: T1, Alpha-1A adrenergic receptor; format: functional, cell-based; remark: listed apart in the source
Vasopressin V2 receptor = Vasopressin V2 receptor (Homo sapiens, UniProt P30518)
Sequence of Vasopressin V2 receptor (P30518 whole entry): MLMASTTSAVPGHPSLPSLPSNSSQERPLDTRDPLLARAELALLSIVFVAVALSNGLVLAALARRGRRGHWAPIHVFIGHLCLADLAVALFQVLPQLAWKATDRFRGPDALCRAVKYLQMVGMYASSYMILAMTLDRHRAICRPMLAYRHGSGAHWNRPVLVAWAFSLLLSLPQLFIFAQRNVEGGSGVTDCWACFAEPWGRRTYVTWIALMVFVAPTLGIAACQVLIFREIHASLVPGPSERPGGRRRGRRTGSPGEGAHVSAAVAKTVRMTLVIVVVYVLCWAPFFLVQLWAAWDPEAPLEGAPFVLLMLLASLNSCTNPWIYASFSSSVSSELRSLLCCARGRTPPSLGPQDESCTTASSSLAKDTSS

B2 bradykinin receptor = target: T5, B2 bradykinin receptor (Homo sapiens, UniProt P30411)
T5 sequence (P30411 whole entry): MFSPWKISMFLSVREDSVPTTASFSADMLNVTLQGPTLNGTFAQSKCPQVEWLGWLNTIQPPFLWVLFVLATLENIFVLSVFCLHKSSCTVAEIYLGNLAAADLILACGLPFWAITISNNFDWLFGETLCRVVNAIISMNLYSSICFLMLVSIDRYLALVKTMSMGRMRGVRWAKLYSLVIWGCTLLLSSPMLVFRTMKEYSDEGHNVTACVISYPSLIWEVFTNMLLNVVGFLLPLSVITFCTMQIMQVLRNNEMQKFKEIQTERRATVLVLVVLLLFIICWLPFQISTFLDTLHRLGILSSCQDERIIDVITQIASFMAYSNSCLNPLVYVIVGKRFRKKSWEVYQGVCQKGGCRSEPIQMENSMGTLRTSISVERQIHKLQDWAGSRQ

Measured: AC50
Further: assay procedure not described here.

O=C(Cc1cccs1)N[C@@H]1C(=O)N2C(C(=O)[O-])=C(C[n+]3ccccc3)CS[C@H]12 [CEPHALORIDINE]
not listed: [8] | Vasopressin V1a receptor | Endothelin-1 receptor | [9] | Vasopressin V2 receptor | B2 bradykinin receptor
> 30 µM: all other assays above

C[C@H](Nc1ncnc2[nH]cnc12)c1cc2cccc(Cl)c2c(=O)n1-c1ccccc1 [DUVELISIB]
not listed: [2] | [9] | Vasopressin V2 receptor | B2 bradykinin receptor
> 30 µM: all other assays above

C[C@]12CC[C@@H]3c4ccc(OC(=O)N(CCCl)CCCl)cc4CC[C@H]3[C@@H]1CC[C@@H]2OP(=O)(O)O [ESTRAMUSTINE PHOSPHATE]
> 30 µM: Prothrombin | [9] | [4] | [6] | Acetylcholinesterase

O=c1[nH]c2ccccc2n1CCN1CCN(c2cccc(C(F)(F)F)c2)CC1 [FLIBANSERIN]
> 10 µM: Prothrombin
0.391 µM: [9]
> 30 µM: [6] | Acetylcholinesterase
17.7 µM: [4]

O=C(O)[C@H](O)[C@@H](O)[C@H](O)[C@H](O)CO [GLUCONIC ACID]
> 30 µM: Prothrombin | [9] | [4] | [6] | Acetylcholinesterase

N=C(N)NCC1COc2ccccc2O1 (configuration not stated) [GUANOXAN]
> 30 µM: Prothrombin | [4] | [6] | Acetylcholinesterase
21.3 µM: [9]

N#Cc1ccnc(N2C(=O)CC[C@H]2C(=O)N(c2cncc(F)c2)[C@H](C(=O)NC2CC(F)(F)C2)c2ccccc2Cl)c1 [IVOSIDENIB]
> 30 µM: Prothrombin | [9] | [4] | [6] | Acetylcholinesterase

O=C1[C@@H]2[C@H]3CC[C@H](C3)[C@@H]2C(=O)N1C[C@@H]1CCCC[C@H]1CN1CCN(c2nsc3ccccc23)CC1 [LURASIDONE]
> 30 µM: Prothrombin | [4] | Cannabinoid receptor 1 | [8] | Vasopressin V1a receptor | Endothelin-1 receptor | Acetylcholinesterase

CCCCCCO[C@@H](C)c1cccc(-c2csc(NC(=O)c3cc(Cl)c(/C=C(\C)C(=O)O)c(Cl)c3)n2)c1OC [LUSUTROMBOPAG]
13.5 µM: [9]
> 30 µM: [4] | Acetylcholinesterase
19.3 µM: Prothrombin
> 10 µM: [6]

Cc1cc(C)cc(OCC2CNC(=O)O2)c1 (configuration not stated) [METAXALONE]
> 30 µM: Prothrombin | [9] | [4] | [6] | Acetylcholinesterase

CO[C@@]1(NC(=O)C(C(=O)O)c2ccc(O)cc2)C(=O)N2C(C(=O)O)=C(CSc3nnnn3C)CO[C@@H]21 (some centres not stated) [MOXALACTAM]
> 30 µM: Prothrombin | [9] | [4] | [6] | Acetylcholinesterase

CCCCCCCC/C=C\CCCCCCCC(=O)O [OLEIC ACID]
> 30 µM: Prothrombin | [9] | [4] | [6] | Acetylcholinesterase

C#CCN(C)Cc1ccccc1 [PARGYLINE]
not listed: [8] | Vasopressin V1a receptor | Endothelin-1 receptor | [9] | Vasopressin V2 receptor | B2 bradykinin receptor
> 30 µM: all other assays above

CC1=C(C/C=C(\C)CCC[C@H](C)CCC[C@H](C)CCCC(C)C)C(=O)c2ccccc2C1=O [PHYTONADIONE]
> 30 µM: Prothrombin | [9] | [4] | [6] | Acetylcholinesterase

NC(=O)C1(N2CCCCC2)CCN(CCCC(=O)c2ccc(F)cc2)CC1 [PIPAMPERONE]
0.398 µM: [9]
> 30 µM: Prothrombin | Acetylcholinesterase
2.92 µM: [6]
15.8 µM: [4]

COc1cccc2c1C(=O)c1c(O)c3c(c(O)c1C2=O)C[C@@](O)(C(=O)CO)C[C@@H]3O[C@H]1C[C@H](N)[C@H](O[C@@H]2CCCCO2)[C@H](C)O1 [PIRARUBICIN]
> 30 µM: Prothrombin | [4] | [6]
> 10 µM: [9] | Acetylcholinesterase

CC(C)(Oc1ccc(Cl)cc1)C(=O)NC(=O)NCN1CCOCC1 [PLAFIBRIDE]
> 30 µM: Prothrombin | [9] | [4] | [6] | Acetylcholinesterase

CC(C)NC[C@H](O)COc1ccc(O)cc1 [PRENALTEROL]
> 30 µM: Prothrombin | [9] | [4] | [6] | Acetylcholinesterase

CN1CCC(N(Cc2cccs2)c2ccccc2)CC1 [THENALIDINE]
> 30 µM: Prothrombin | Acetylcholinesterase
18 µM: [4]
1.61 µM: [6]
23.5 µM: [9]

Cc1ccc(C(C)C)c(O)c1 [THYMOL]
25.8 µM: [9]
> 30 µM: Prothrombin | [4] | [6] | Acetylcholinesterase

CN(C)CCN(Cc1ccccc1)c1ccccn1 [TRIPELENNAMINE]
> 30 µM: Prothrombin | [9] | Acetylcholinesterase
0.619 µM: [6]
0.395 µM: [4]
0.209 µM: [8]
not listed: [1] | Cannabinoid receptor 1 | Endothelin-1 receptor
> 10 µM: all other assays above

Cc1cccc(C)c1NC(=O)c1cc(S(N)(=O)=O)c(Cl)cc1O [XIPAMIDE]
> 30 µM: Prothrombin | [9] | [4] | [6] | Acetylcholinesterase

— ChEMBL document CHEMBL5291721, “A preclinical secondary pharmacology resource illuminates target-adverse drug reaction associations of marketed drugs” (Nat Commun, 2023)
